Test results from patent US20080275134A1, “Methods for Treatment of Retinal Degenerative Disease” (University of Washington, priority 2005, published 2008).

Key:
[1] = system: regeneration of vision chromophore (11-cis-retinal); test: regeneration of 11-cis-retinal in mouse eyes after gavage and light bleach, HPLC retinoid analysis; format: in vivo
Experimental: Mice were gavaged with all-trains-Ret-NH2, exposed to intense light for 20 min, and then allowed to recover in the dark for 5 hours. The total amount of different forms of retinoids in all experiments was unchanged. […] For this experiment mice were treated with both 9-cis-retinol and all-trans-Ret-NH2, and bleached after 24 hours, and were allowed to recover for 5 hours in the dark. The presence of 9-cis-retinal was confirmed in treated animals (see peaks 4 and 4′ in FIG. 4A bottom panel, corresponding to syn- and anti-9-cis-retinal oximes, respectively). 11-cis-Retinal was not reduced and/or esterified after treatment with Ret-NH2. […] This supports the idea that Ret-NH2 is a specific inhibitor of the isomerization reaction.
A. Chromatographic separation of nonpolar retinoids from WT mouse eyes. Mice were gavaged with all-trans-Ret-NH2 24 hours prior to bleaching for 20 min at 150 cd·m^−2 W in the Ganzfeld chamber. Regeneration of 11-cis-retinal was allowed for 24 hours in the dark, and retinoids were extracted from the eye and separated by normal phase HPLC as described in Materials and Methods. The peaks were identified based on elution time and absorption spectra correspond to the following retinoids: 1, all-trans-retinyl esters; 2,2′, syn- and anti-11-cis-retinal oximes; 3, syn-all-trans-retinal oxime; 4,4′, syn- and anti-9-cis-retinal oximes; 5, all-trans-retinol. B. Changes of 11-cis-retinal oxime levels at increasing doses of all-trans-Ret-NH2 during 5 hours or 24 hours of dark adaptation. Square indicates the level of 11-cis-retinal oximes that was present in mice gavaged with vegetable oil without retinoids just after bleaching, and arrow indicates the increase of visual chromophore during 5 hours of dark adaptation. Triangles correspond to the level of 11-cis-retinal found in the mice gavaged with 50 mg/kg of 13-cis-RA. C and D. Single flash ERG responses of increasing intensity for all-trans-Ret-NH2 treated mice and control mice. Serial responses to increasing flash stimuli were obtained for all-trans-Ret-NH2 treated and control mice for selected intensities (C) and plotted as a function of a-wave and b-wave versus varying light intensities under dark-adapted conditions (D) before bleach and at 5 hours and 24 hours after bleach. The dark-adapted mice were bleached with intense constant illumination (150 cd·m^−2) for 20 min. […] SE bars are shown.
Chromatographic separation of nonpolar retinoids from WT mouse eyes. Mice were gavaged with 100 mg/kg of all-trans-Ret-NH2 24 hours prior to bleaching. Mice were next exposed to 500 cd m^−2 for 48 min bleaching in the Ganzfeld chamber. Regeneration of 11-cis-retinal was allowed for 24 hours in the dark, and retinoids were extracted from the eye and separated by normal phase HPLC as described in Materials and Methods. The peaks identified based on elution time and absorption spectra correspond to the following retinoids: 1, all-trans-retinyl esters; 2,2′, syn- and anti-1-cis-retinal oximes; 3,3′ syn- and anti-all-trans-retinal oximes; 4, all-trans-retinol.
Mice were gavaged with the solution of inhibitor in vegetable oil (control—non-treated, RPN—retinylpalmitamide, RAN—retinylacetamide, Ret—NH2-all-trans-retinylamine), kept in dark for 16 hours, then light stimulated and kept in dark for additional 5 hours before their eyes were analyzed.
Mouse retinoid extraction and analysis—Retinoid analysis was performed under dim red light as described previously (Maeda et al., J. Neurochem 85:944-956, 2003; Van Hooser et al., J Biol Chem 277:19173-82, 2002). Mice were gavaged with retinoids as described previously (Van Hooser et al., J Biol Chem 277:19173-82, 2002).

[2] = biological target: T1, isomerase (Bos taurus, UniProt Q28175); test: isomerase reaction: 11-cis-retinol production by RPE microsomes from all-trans-retinol; format: biochemical, bovine
T1 construct: Purified RPE microsomes were the source of the enzymes; from tissue; host or cells: bovine retinal pigment epithelium microsomes
T1 sequence (Q28175 2-533 limits assumed): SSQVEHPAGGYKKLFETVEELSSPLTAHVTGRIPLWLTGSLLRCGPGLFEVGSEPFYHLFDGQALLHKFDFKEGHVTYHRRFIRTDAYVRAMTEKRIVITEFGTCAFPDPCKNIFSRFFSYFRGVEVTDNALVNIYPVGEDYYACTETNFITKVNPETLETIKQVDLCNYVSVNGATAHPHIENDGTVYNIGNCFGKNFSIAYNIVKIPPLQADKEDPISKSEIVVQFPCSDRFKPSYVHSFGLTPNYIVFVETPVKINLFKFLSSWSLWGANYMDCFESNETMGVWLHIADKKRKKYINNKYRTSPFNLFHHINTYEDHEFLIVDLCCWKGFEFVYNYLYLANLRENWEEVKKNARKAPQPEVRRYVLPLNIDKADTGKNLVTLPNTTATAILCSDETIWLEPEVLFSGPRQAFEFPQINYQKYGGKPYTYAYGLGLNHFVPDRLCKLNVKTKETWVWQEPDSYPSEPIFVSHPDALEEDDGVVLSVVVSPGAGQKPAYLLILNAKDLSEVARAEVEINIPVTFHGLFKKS
Experimental: To test if 11-cis-retinylamine (11-cis Ret-NH2) affects isomerization and esterification, an in vitro assay was employed. In this assay both of the all-trans-retinyl esters formed in the reaction catalyzed by LRAT and 11-cis-retinol production by isomerase were measured (6). Purified RPE microsomes were the source of the enzymes, and all-trans-retinol was the substrate. […] Inhibition of isomerization by Ret-NH2 is not due to binding of CRALBP or competition with 11-cis-retinol for binding to CRALBP. […] An increased concentration of all-trans-retinol lowered the level of inhibition, as illustrated in FIG. 2B. […] Dixon's and Lineweaver-Burk plots in the standard assay conditions yielded Ki=0.1 μM for Ret-NH2 when all-trans-retinol (KM=0.3 μM) was assumed to be a substrate. […] This estimated value reflects the very potent nature of the inhibition by 11-cis-Ret-NH2.
Materials—Fresh bovine eyes were obtained from a local slaughterhouse (Schenk Packing Co., Inc., Stanwood, Wash.). Preparation of bovine RPE microsomes was performed according to previously described methods (Stecher et al., J Biol Chem 274:8577-85, 1999). All chemicals were purchased from Sigma-Aldrich (St. Louis, Mo.). 11-cis-Retinal was obtained from Dr. Rosalie Crouch (Charleston, S.C.).
Reaction conditions for isomerase and LRAT reaction—The isomerase reaction was performed essentially as described previously (Stecher et al., J Biol Chem 274:8577-85, 1999). The reaction was carried out in 10 mM BTP buffer, pH 7.5, 1% BSA, containing 1 mM ATP and 6 μM apo-CRALBP. To investigate inhibition properties of Ret-NH2 and its derivatives, RPE microsomes were preincubated for 5 min in 37° C. with the indicated compound in 10 mM BTP buffer, pH 7.5, 1% BSA, 1 mM ATP prior to addition of apo-CRALBP and all-trans-retinol. Ret-NH2 and its derivatives were delivered to the reaction mixture in 1 μl of DMF, and the same volume of DMF was added to the control reaction. Each experiment was performed three times in duplicate. The average values were used and the standard deviations were calculated.

SMILES | IC50 of chromophore recovery, 5 hours recovery ([1]; 20 min high-intensity light, 5 hours dark) | IC50 of chromophore recovery, 24 hours recovery ([1]; 20 min high-intensity light, 24 hours dark) | recovery of chromophore after all 11-cis-retinal is photoisomerized ([1]; longer light treatment (100 mg/kg, 500 cd m^-2 for 48 min, 24 hours dark)) | Ki ([2]; Dixon's and Lineweaver-Burk plots, standard assay conditions, all-trans-retinol assumed to be substrate, estimated value) | mode of isomerase inhibition ([2]; initial rate vs concentrations of all-trans-retinol and 11-cis-Ret-NH2) | change in amount of Ret-NH2 between start and end of the assay (HPLC) ([2]; time course of the in vitro isomerase assay) | retinoid levels in the eye without light exposure ([1]; 50 mg/kg, not exposed to light, after 30 hours) | 11-cis-retinal in the eye after bleach and dark recovery ([1]; gavage, intense light 20 min, 5 hours in the dark) | levels of all-trans-retinyl esters in the eye ([1]; gavage, intense light 20 min, 5 hours in the dark, vs controls) | uptake, transport or oxidation of 9-cis-retinol ([1]; mice given 9-cis-retinol and all-trans-Ret-NH2, bleached after 24 hours, 5 hours dark) | IC50 ([2]; RPE microsomes, all-trans-retinol substrate, read-out: IC50, inhibition of 11-cis-retinol production)
CC1=C(/C=C/C(C)=C/C=C/C(C)=C/CN)C(C)(C)CCC1 [Ret-NH2, Retinylamine] | 2 mg/kg | 24 mg/kg | completely blocks recovery of chromophore | 100 nM | reversible and can be competed out by all-trans-retinol | ≤ 5% | – | – | – | – | –
CC1=C(/C=C/C(C)=C/C=C/C(C)=C/CN)C(C)(C)CCC1 [all-trans-Ret-NH2, all-trans-retinylamine] | – | – | – | – | – | – | normal levels of retinoids | only a residual amount | elevated | did not affect | 500 nM
